Data: patent EP4603105A1, “PHARMACEUTICAL COMPOSITION CONTAINING CYCLIC COMPOUND HAVING SELECTIVE KRAS INHIBITORY EFFECT AGAINST HRAS AND NRAS” (CHUGAI SEIYAKU KABUSHIKI KAISHA, priority 2022, dated 2024)
pIC50: −log10 of the molar value. *1 amine or outer side, *2 acyl side, *3 side chain or, on linkers, in order; H or OH if unused. Where a SMILES comes first, the peptide text is derived from it. Bridges are numbered along the chain shown (N, C = ends). [ ]: non-standard residue; d: D form. The star is where a group is joined. hPhe(3-Cl-4-CF3) = N[C@@H](CCc1ccc(C(F)(F)F)c(Cl)c1)C(=O)O; NPrPhe(4-CF3) = CCCN[C@@H](Cc1ccc(C(F)(F)F)cc1)C(=O)O; X44 = Cc1ccc(C[C@@H](C(=O)[*:2])N(CC2CCC2)[*:1])cc1; NMeGly(cPent) = CN[C@H](C(=O)O)C1CCCC1; Pro(4,4-F2) = O=C(O)[C@@H]1CC(F)(F)CN1; Hyp = O=C(O)[C@@H]1C[C@@H](O)CN1; NMeD = CN[C@@H](CC(=O)O)C(=O)O; NMeL = CN[C@@H](CC(C)C)C(=O)O; Morpholide = C1CN(*)CCO1; Ac5c = NC1(C(=O)O)CCCC1; Ac4c = NC1(C(=O)O)CCC1; Sar = CNCC(=O)O

Key:
[1] = target: GDP-bound NRAS wild-type protein (Homo sapiens, UniProt P01111); experiment: Binding to NRAS by surface plasmon resonance (SPR), KD and KD ratio to KRAS
GDP-bound NRAS wild-type protein, sequence (P01111 whole entry): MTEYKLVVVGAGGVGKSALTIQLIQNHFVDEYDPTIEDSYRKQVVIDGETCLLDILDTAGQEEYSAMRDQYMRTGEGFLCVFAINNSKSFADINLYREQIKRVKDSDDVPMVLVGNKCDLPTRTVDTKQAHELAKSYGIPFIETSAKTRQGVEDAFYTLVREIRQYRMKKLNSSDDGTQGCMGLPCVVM
Procedure, shortened: (§1)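 Running buffer contained 10 µM GDP and 10 mM MgCl2 to keep RAS in the GDP state, with 4% DMSO at pH 7.4. Compounds were flowed at 100 µL/min in 75 s steps of rising concentration over captured biotin-Avi RAS at 30°C. Sensorgrams were fitted 1:1 for KD.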

[2] = tested on: human lung cancer strain NCI-H441; assay type: cell-based
Procedure, shortened: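 Step one: dispense the test compound in serial DMSO dilutions. Step three: add the reagent and measure […].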

[3] = target: HRAS wild-type protein (Homo sapiens, UniProt P01112); experiment: Binding to HRAS by surface plasmon resonance (SPR), KD and KD ratio to KRAS
HRAS wild-type protein, sequence (P01112 whole entry): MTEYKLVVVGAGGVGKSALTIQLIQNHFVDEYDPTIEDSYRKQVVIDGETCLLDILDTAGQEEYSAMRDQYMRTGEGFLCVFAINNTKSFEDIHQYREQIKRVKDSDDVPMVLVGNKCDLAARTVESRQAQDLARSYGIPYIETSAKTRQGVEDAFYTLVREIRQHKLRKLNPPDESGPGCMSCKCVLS
Procedure, shortened: as §1

[4] = ratio of the KD value with respect to GDP-bound NRAS wild-type protein to the KD value with respect to KRAS
[5] = ratio of the KD value with respect to HRAS wild-type protein to the KD value with respect to KRAS
[6] = ratio of KD for GDP-bound NRAS wild-type protein to KD for KRAS
[7] = ratio of KD for HRAS wild-type protein to KD for KRAS

Row | Structure (SMILES) | pIC50 [2] | NRAS /KRAS [1, 4] | HRAS /KRAS [3, 5] | NRAS /KRAS [1, 6] | HRAS /KRAS [3, 7] | NRAS /KRAS ([1]; ratio of KD with respect to GDP-bound NRAS wild-type protein to KD with respect to KRAS) | HRAS /KRAS ([3]; ratio of KD with respect to HRAS wild-type protein to KD with respect to KRAS)
1 | CCCN(C)C(=O)[C@@H]1CC(=O)N(C)[C@@H](CC(F)F)C(=O)N[C@@H]([C@@H](C)CC)C(=O)N(C)CC(=O)N(C)[C@H]2C/C=C\CCN(C2=O)[C@@H](Cc2ccc(C(F)(F)F)cc2)C(=O)N(C)CC(=O)N[C@@H](CCc2ccc(C(F)(F)F)c(OC)c2)C(=O)N2C[C@@H](C)C[C@H]2C(=O)NC2(CC(C)(C)C2)C(=O)N(C)[C@@H](C2CCCC2)C(=O)N1C [PP1989] | 7.95 | A (a compound having 10 or more and less than 20 is denoted as A) | A (a compound having 10 or more and less than 20 is denoted as A) |  |  |  | 
2 | CCCOC[C@H]1C(=O)N[C@@H]([C@@H](C)CC)C(=O)N(C)CC(=O)N(C)[C@H]2C/C=C\CCN(C2=O)[C@@H](Cc2ccc(C)cc2)C(=O)N(C)CC(=O)N[C@@H](CCc2cc(F)c(C(F)(F)F)c(F)c2)C(=O)N2C[C@H](CCC)C[C@H]2C(=O)NC2(CCCC2)C(=O)N(C)[C@@H](C2CCCC2)C(=O)N(C)[C@H](C(=O)N(C)C)CC(=O)N1C [PP2229] | 7.40 | A (a compound having 10 or more and less than 20 is denoted as A) | A (a compound having 10 or more and less than 20 is denoted as A) |  |  |  | 
3 | CCCN1C(=O)CN(C)C(=O)CNC(=O)[C@H]([C@@H](C)CC)NC(=O)[C@H](CC(C)C)N(C)C(=O)C[C@@H](C(=O)N2CCOCC2)NC(=O)[C@H](C2CCCC2)N(C)C(=O)C2(CCC2)NC(=O)[C@@H]2CC(F)(F)CN2C(=O)[C@H](CCc2ccc(C(F)(F)F)c(Cl)c2)NC(=O)CN(C)C(=O)[C@@H]1Cc1ccc(C(F)(F)F)cc1 [PP0328] ([NMeL]IG[Sar][NPrPhe(4-CF3)][Sar][hPhe(3-Cl-4-CF3)][Pro(4,4-F2)][Ac4c][NMeGly(cPent)]D-Morpholide; lactam N-11) | 6.62 |  |  | B (a compound having 3 or more and less than 10 is denoted as B) | B (a compound having 3 or more and less than 10 is denoted as B) |  | 
4 | CCO[C@@H]1C[C@H]2C(=O)NC3(CCC3)C(=O)N(C)[C@@H](C3CCCC3)C(=O)N(C)[C@H](C(=O)N(C)CC)CC(=O)N(C)[C@@H](CC(F)F)C(=O)N[C@@H]([C@@H](C)CC)C(=O)N(C)CC(=O)N(C)[C@H]3C/C=C\CCN(C3=O)[C@@H](Cc3ccc(C(F)(F)F)cc3)C(=O)N(C)CC(=O)N[C@@H](CCc3cc(F)c(C(F)(F)F)c(F)c3)C(=O)N2C1 [PP1303] | 8.38 |  |  |  |  | AA (a compound having 20 or more is denoted as AA) | A (a compound having 10 or more and less than 20 is denoted as A)
5 | CCC(CC)[C@H]1C(=O)N(C)[C@H](C(=O)N(C)C)CC(=O)N(C)[C@@H](COC)C(=O)N[C@@H]([C@@H](C)CC)C(=O)N(C)CC(=O)N(C)[C@H]2C/C=C\CCN(C2=O)[C@@H](Cc2ccc(C(F)(F)F)cc2)C(=O)N(C)CC(=O)N[C@@H](CCc2cc(F)c(C(F)(F)F)c(F)c2)C(=O)N2CC3(CC3)C[C@H]2C(=O)NC2(CC(C)(C)C2)C(=O)N1C [PP2961] | 7.86 |  |  | AA (a compound having 20 or more is denoted as AA) | A (a compound having 10 or more and less than 20 is denoted as A) |  | 

The next lines start with results.

Row | pIC50 [2] | Structure (SMILES) | NRAS /KRAS [1, 4] | HRAS /KRAS [3, 5] | NRAS /KRAS [1, 6] | HRAS /KRAS [3, 7] | NRAS /KRAS ([1]; ratio of KD with respect to GDP-bound NRAS wild-type protein to KD with respect to KRAS) | HRAS /KRAS ([3]; ratio of KD with respect to HRAS wild-type protein to KD with respect to KRAS)
6 | 7.74 | CC[C@H](C)[C@@H]1NC(=O)[C@H](CC(C)C)N(C)C(=O)C[C@@H](C(=O)N2CCOCC2)N(C)C(=O)[C@H](C2CCCC2)N(C)C(=O)C2(CCCC2)NC(=O)[C@@H]2CCCN2C(=O)[C@H](CCc2ccc(C(F)(F)F)c(Cl)c2)NC(=O)CN(C)C(=O)[C@H](Cc2ccc(C)cc2)N(CC2CCC2)C(=O)CN(C)C(=O)CN(C)C1=O [PP0095] ([NMeL]I[Sar][Sar][X44][Sar][hPhe(3-Cl-4-CF3)]P[Ac5c][NMeGly(cPent)][NMeD]-Morpholide; lactam N-11) |  |  | C (A compound having a KD ratio of 0.1 or more and less than 3 is denoted as C) | C (A compound having a KD ratio of 0.1 or more and less than 3 is denoted as C) |  | 
7 | 8.72 | CCCN1C(=O)CN(C)C(=O)CN(C)C(=O)[C@H]([C@@H](C)CC)NC(=O)[C@H](CC(C)C)N(C)C(=O)C[C@@H](C(=O)N2CCOCC2)N(C)C(=O)[C@H](C2CCCC2)N(C)C(=O)C2(CCCC2)NC(=O)[C@@H]2C[C@@H](OC)CN2C(=O)[C@H](CCc2ccc(C(F)(F)F)c(Cl)c2)NC(=O)CN(C)C(=O)[C@@H]1Cc1ccc(C(F)(F)F)cc1 [PP0262] ([NMeL]I[Sar][Sar][NPrPhe(4-CF3)][Sar][hPhe(3-Cl-4-CF3)][Hyp](Me)[Ac5c][NMeGly(cPent)][NMeD]-Morpholide; lactam N-11) |  |  | B (a compound having 3 or more and less than 10 is denoted as B) | B (a compound having 3 or more and less than 10 is denoted as B) |  | 
